Laboratory results as given in paper PMC10046369, “Low-Affinity/High-Selectivity Dopamine Transport Inhibition Sufficient to Rescue Cognitive Functions in the Aging Rat” (Biomolecules, 2023).

What was measured:
[1] = biological target: EPHA7 (Homo sapiens, UniProt Q15375); assay: biochemical; set-up: KINOMEscan competition binding panel, per cent of control; settings: read-out: %Ctrl @ 2800nM
Procedure, shortened: (§1)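 Values are expressed as percent of control, calculated as ((test − positive control)/(negative control − positive control)) × 100, so lower numbers mean stronger hits. Binding was measured by KINOMEscan competition assay in a 450-kinase human panel including disease mutants, using the contractor's validated protocol.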

[2] = biological target: T1, SIK (Homo sapiens, UniProt P57059); assay: biochemical; set-up: KINOMEscan competition binding panel, per cent of control; settings: read-out: %Ctrl @ 2800nM
T1 construct: gene SIK1
Procedure, shortened: as §1

[3] = biological target: MAP4K4 (Homo sapiens, UniProt O95819); assay: biochemical; set-up: KINOMEscan competition binding panel, per cent of control; settings: read-out: %Ctrl @ 2800nM
Procedure, shortened: as §1

[4] = biological target: RET(M918T) (Homo sapiens, UniProt P07949, M918T); assay: biochemical; set-up: KINOMEscan competition binding panel, per cent of control; settings: read-out: %Ctrl @ 2800nM
Procedure, shortened: as §1

[5] = biological target: T2, DRAK2 (Homo sapiens, UniProt O94768); assay: biochemical; set-up: KINOMEscan competition binding panel, per cent of control; settings: read-out: %Ctrl @ 2800nM
T2 construct: gene STK17B
Procedure, shortened: as §1

[6] = biological target: T3, PRP4 (Homo sapiens, UniProt Q13523); assay: biochemical; set-up: KINOMEscan competition binding panel, per cent of control; settings: read-out: %Ctrl @ 2800nM
T3 construct: gene PRPF4B
Procedure, shortened: as §1

[7] = biological target: FGR (Homo sapiens, UniProt P09769); assay: biochemical; set-up: KINOMEscan competition binding panel, per cent of control; settings: read-out: %Ctrl @ 2800nM
Procedure, shortened: as §1

[8] = biological target: T4, NIK (Homo sapiens, UniProt Q99558); assay: biochemical; set-up: KINOMEscan competition binding panel, per cent of control; settings: read-out: %Ctrl @ 2800nM
T4 construct: gene MAP3K14
Procedure, shortened: as §1

[9] = biological target: RAF1 (Homo sapiens, UniProt P04049); assay: biochemical; set-up: KINOMEscan competition binding panel, per cent of control; settings: read-out: %Ctrl @ 2800nM
Procedure, shortened: as §1

[10] = biological target: T5, CDC2L5 (Homo sapiens, UniProt Q14004); assay: biochemical; set-up: KINOMEscan competition binding panel, per cent of control; settings: read-out: %Ctrl @ 2800nM
T5 construct: gene CDK13
Procedure, shortened: as §1

[11] = biological target: T6, ERK1 (Homo sapiens, UniProt P27361); assay: biochemical; set-up: KINOMEscan competition binding panel, per cent of control; settings: read-out: %Ctrl @ 2800nM
T6 construct: gene MAPK3
Procedure, shortened: as §1

[12] = biological target: SGK3 (Homo sapiens, UniProt Q96BR1); assay: biochemical; set-up: KINOMEscan competition binding panel, per cent of control; settings: read-out: %Ctrl @ 2800nM
Procedure, shortened: as §1

[13] = biological target: ITK (Homo sapiens, UniProt Q08881); assay: biochemical; set-up: KINOMEscan competition binding panel, per cent of control; settings: read-out: %Ctrl @ 2800nM
Procedure, shortened: as §1

[14] = biological target: T7, DCAMKL2 (Homo sapiens, UniProt Q8N568); assay: biochemical; set-up: KINOMEscan competition binding panel, per cent of control; settings: read-out: %Ctrl @ 2800nM
T7 construct: gene DCLK2
Procedure, shortened: as §1

[15] = biological target: PIK3C2G (Homo sapiens, UniProt O75747); assay: biochemical; set-up: KINOMEscan competition binding panel, per cent of control; settings: read-out: %Ctrl @ 2800nM
Procedure, shortened: as §1

[16] = biological target: ALK(L1196M) (Homo sapiens, UniProt Q9UM73, L1196M); assay: biochemical; set-up: KINOMEscan competition binding panel, per cent of control; settings: read-out: %Ctrl @ 2800nM
Procedure, shortened: as §1

[17] = biological target: SNRK (Homo sapiens, UniProt Q9NRH2); assay: biochemical; set-up: KINOMEscan competition binding panel, per cent of control; settings: read-out: %Ctrl @ 2800nM
Procedure, shortened: as §1

[18] = biological target: IRAK3 (Homo sapiens, UniProt Q9Y616); assay: biochemical; set-up: KINOMEscan competition binding panel, per cent of control; settings: read-out: %Ctrl @ 2800nM
Procedure, shortened: as §1

[19] = biological target: T8, ASK1 (Homo sapiens, UniProt Q99683); assay: biochemical; set-up: KINOMEscan competition binding panel, per cent of control; settings: read-out: %Ctrl @ 2800nM
T8 construct: gene MAP3K5
Procedure, shortened: as §1

[20] = biological target: LYN (Homo sapiens, UniProt P07948); assay: biochemical; set-up: KINOMEscan competition binding panel, per cent of control; settings: read-out: %Ctrl @ 2800nM
Procedure, shortened: as §1

[21] = biological target: T9, NPS (h) (Homo sapiens, UniProt Q6W5P4); assay: cell-based; set-up: functional GPCR antagonist screen (Eurofins Cerep), percent inhibition of control agonist response; settings: antagonist effect, against control agonist; read-out: % Inhibition of Control Agonist Response, Mean
T9 construct: gene NPSR1

[22] = biological target: T10, MRGX2 / MGRPLX2 (h) (Homo sapiens, UniProt Q96LB1); assay: cell-based; set-up: functional GPCR antagonist screen (Eurofins Cerep), percent inhibition of control agonist response; settings: antagonist effect, against control agonist; read-out: % Inhibition of Control Agonist Response, Mean
T10 construct: gene MRGPRX2

[23] = biological target: T11, LPA2 (h) (Homo sapiens, UniProt Q9HBW0); assay: cell-based; set-up: functional GPCR antagonist screen (Eurofins Cerep), percent inhibition of control agonist response; settings: antagonist effect, against control agonist; read-out: % Inhibition of Control Agonist Response, Mean
T11 construct: gene LPAR2

[24] = biological target: T12, NPBW1 (h) (Homo sapiens, UniProt P48145); assay: cell-based; set-up: functional GPCR antagonist screen (Eurofins Cerep), percent inhibition of control agonist response; settings: antagonist effect, against control agonist; read-out: % Inhibition of Control Agonist Response, Mean
T12 construct: gene NPBWR1

[25] = biological target: T13, DP1 (h) (Homo sapiens, UniProt Q13258); assay: cell-based; set-up: functional GPCR antagonist screen (Eurofins Cerep), percent inhibition of control agonist response; settings: antagonist effect, against control agonist; read-out: % Inhibition of Control Agonist Response, Mean
T13 construct: gene PTGDR

Chain of ITK (Q08881 whole entry): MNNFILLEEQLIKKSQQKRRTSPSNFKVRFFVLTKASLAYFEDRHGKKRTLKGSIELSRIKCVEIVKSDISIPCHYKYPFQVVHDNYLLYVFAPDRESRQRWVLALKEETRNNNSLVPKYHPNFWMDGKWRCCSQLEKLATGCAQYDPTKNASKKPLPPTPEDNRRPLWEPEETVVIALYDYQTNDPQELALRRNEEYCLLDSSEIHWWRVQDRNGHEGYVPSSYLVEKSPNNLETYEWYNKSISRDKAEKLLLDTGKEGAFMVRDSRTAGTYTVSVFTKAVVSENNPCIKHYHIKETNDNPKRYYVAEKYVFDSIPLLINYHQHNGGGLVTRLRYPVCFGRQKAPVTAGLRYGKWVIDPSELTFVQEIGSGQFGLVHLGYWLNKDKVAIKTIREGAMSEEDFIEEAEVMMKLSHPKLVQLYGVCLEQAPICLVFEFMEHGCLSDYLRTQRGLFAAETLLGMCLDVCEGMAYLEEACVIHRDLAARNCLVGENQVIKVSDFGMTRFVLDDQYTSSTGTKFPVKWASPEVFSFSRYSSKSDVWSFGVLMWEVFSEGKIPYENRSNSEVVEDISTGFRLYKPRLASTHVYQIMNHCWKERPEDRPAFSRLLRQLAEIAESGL
T1 sequence (P57059 whole entry): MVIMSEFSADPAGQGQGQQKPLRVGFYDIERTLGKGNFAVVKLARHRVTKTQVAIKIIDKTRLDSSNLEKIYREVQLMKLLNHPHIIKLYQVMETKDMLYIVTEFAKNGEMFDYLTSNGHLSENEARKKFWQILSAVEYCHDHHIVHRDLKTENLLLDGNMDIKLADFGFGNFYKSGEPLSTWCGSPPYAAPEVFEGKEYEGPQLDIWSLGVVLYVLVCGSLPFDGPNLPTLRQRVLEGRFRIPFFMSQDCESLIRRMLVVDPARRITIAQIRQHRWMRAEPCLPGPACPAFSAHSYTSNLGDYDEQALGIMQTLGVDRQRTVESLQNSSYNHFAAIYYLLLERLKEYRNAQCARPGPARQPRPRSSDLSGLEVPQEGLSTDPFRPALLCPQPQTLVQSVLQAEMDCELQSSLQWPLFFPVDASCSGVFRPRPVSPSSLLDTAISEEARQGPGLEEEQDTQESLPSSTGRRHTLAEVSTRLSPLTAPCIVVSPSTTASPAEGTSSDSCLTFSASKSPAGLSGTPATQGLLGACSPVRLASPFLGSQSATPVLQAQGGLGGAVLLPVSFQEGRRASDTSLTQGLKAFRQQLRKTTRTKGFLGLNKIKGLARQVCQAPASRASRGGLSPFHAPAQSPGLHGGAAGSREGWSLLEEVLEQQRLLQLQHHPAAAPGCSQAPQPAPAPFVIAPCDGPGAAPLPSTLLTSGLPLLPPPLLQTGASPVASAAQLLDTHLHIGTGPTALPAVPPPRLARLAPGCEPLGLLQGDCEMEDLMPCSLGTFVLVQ
T2 sequence (O94768 whole entry): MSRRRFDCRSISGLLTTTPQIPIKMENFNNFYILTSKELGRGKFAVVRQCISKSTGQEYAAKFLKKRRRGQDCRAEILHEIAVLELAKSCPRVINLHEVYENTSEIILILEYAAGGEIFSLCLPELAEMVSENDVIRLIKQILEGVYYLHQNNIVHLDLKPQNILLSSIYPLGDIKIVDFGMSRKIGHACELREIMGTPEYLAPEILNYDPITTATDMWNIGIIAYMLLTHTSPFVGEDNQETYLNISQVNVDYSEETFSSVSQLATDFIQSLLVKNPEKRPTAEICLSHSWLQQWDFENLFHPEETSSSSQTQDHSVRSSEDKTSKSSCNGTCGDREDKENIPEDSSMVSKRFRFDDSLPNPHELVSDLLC
Chain of FGR (P09769 whole entry): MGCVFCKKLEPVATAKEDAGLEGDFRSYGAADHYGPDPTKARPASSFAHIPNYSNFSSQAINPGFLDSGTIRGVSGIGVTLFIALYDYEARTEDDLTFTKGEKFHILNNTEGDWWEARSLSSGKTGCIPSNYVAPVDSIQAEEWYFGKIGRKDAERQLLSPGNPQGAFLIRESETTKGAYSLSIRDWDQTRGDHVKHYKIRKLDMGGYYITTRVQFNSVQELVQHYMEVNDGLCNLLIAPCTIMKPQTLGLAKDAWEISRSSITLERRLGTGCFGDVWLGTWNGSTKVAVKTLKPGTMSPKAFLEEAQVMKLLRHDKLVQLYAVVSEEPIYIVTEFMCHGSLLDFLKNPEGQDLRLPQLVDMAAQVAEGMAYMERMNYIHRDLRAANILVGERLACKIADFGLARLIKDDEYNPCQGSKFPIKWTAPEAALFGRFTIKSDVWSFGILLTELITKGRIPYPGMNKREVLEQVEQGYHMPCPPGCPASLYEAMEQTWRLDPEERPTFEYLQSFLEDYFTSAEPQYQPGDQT
Chain of EPHA7 (Q15375 whole entry): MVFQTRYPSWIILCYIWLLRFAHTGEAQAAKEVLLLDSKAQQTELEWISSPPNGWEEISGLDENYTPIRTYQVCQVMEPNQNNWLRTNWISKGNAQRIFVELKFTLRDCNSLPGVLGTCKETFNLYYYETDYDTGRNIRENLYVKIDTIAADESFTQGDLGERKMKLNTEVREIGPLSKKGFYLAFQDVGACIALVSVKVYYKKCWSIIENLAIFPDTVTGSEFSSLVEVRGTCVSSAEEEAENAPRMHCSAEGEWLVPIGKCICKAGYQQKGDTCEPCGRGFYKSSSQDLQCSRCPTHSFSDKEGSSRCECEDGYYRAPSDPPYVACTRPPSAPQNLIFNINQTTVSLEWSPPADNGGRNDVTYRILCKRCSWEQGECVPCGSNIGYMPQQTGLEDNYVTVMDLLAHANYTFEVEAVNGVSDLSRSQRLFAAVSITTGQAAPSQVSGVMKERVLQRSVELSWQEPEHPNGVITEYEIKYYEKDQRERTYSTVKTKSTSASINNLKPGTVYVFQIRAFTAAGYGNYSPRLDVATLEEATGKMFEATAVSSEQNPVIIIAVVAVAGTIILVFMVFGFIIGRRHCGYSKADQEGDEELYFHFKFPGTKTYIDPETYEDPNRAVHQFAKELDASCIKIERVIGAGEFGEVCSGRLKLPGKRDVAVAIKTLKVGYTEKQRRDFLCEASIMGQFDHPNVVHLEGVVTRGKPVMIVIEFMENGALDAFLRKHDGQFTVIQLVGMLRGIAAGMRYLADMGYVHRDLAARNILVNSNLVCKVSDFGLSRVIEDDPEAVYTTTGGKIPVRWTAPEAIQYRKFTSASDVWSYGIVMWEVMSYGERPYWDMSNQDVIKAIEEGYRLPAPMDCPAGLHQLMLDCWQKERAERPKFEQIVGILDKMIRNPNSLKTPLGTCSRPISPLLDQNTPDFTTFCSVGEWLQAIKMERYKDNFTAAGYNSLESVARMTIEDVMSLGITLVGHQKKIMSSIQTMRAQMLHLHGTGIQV
T12 sequence (P48145 whole entry): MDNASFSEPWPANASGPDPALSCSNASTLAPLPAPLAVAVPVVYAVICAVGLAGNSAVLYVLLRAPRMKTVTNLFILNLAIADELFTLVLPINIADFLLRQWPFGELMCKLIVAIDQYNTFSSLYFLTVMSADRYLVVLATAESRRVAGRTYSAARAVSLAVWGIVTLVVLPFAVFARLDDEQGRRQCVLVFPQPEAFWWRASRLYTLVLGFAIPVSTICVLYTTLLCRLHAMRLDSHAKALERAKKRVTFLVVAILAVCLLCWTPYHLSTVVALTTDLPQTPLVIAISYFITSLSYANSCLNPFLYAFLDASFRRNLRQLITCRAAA
T11 sequence (Q9HBW0 whole entry): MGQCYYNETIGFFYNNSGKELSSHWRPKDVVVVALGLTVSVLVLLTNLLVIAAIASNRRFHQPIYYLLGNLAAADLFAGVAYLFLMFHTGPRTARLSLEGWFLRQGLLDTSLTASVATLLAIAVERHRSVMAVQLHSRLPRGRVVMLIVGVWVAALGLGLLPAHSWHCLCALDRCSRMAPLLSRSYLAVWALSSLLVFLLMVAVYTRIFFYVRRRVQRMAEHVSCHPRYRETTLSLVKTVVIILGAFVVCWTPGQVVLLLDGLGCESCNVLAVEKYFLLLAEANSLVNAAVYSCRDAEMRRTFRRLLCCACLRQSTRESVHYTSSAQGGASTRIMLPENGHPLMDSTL
T9 sequence (Q6W5P4 whole entry): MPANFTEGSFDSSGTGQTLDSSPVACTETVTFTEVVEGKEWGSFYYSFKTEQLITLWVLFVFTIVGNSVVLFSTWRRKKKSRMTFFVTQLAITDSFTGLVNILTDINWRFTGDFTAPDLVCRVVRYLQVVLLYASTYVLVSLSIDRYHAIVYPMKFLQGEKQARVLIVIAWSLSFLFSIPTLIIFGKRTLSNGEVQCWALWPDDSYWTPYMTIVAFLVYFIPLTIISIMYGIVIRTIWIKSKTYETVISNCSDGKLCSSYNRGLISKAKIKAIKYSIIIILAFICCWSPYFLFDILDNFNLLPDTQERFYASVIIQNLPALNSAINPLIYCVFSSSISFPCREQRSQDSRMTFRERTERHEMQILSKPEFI
T6 sequence (P27361 whole entry): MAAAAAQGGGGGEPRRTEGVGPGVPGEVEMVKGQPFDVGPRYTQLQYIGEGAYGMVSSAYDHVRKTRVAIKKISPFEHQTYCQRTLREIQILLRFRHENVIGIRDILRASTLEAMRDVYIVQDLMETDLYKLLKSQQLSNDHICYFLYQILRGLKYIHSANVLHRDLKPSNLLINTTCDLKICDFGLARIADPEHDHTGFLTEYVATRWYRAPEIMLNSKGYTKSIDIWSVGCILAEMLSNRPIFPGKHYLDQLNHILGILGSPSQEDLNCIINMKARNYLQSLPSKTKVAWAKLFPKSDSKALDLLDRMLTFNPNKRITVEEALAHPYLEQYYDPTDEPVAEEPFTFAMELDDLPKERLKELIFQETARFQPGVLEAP

Question: For `[O-][S@@+](Cc1cncs1)C(c1ccccc1)c1ccccc1` [S-CE-123, (S)-5-((Benzhydrylsulfinyl)Methyl)Thiazole], which remaining binding at 2.8 µM [1] is on record?
Answer: 96%

Question: And the remaining binding at 2.8 µM [2]?
Answer: 100%

Question: And the remaining binding at 2.8 µM [3]?
Answer: 100%

Question: What about the remaining binding at 2.8 µM [4] of the same compound?
Answer: 89%

Question: And the remaining binding at 2.8 µM [5]?
Answer: 95%

Question: And the remaining binding at 2.8 µM [6]?
Answer: 92%

Question: And the remaining binding at 2.8 µM [7]?
Answer: 100%

Question: And the remaining binding at 2.8 µM [8]?
Answer: 100%

Question: What about the remaining binding at 2.8 µM [9] of the same compound?
Answer: 76%

Question: And the remaining binding at 2.8 µM [10]?
Answer: 98%

Question: What about the remaining binding at 2.8 µM [11] of the same compound?
Answer: 91%

Question: And the remaining binding at 2.8 µM [12]?
Answer: 100%

Question: What about the remaining binding at 2.8 µM [13] of the same compound?
Answer: 100%

Question: What about the remaining binding at 2.8 µM [14] of the same compound?
Answer: 97%

Question: And the remaining binding at 2.8 µM [15]?
Answer: 66%

Question: What about the remaining binding at 2.8 µM [16] of the same compound?
Answer: 100%

Question: And the remaining binding at 2.8 µM [17]?
Answer: 98%

Question: And the remaining binding at 2.8 µM [18]?
Answer: 96%

Question: What about the remaining binding at 2.8 µM [19] of the same compound?
Answer: 84%

Question: What about the remaining binding at 2.8 µM [20] of the same compound?
Answer: 83%

Question: And the inhibition at 2.8 µM [21]?
Answer: -14.3%

Question: And the inhibition at 2.8 µM [22]?
Answer: 7.1%

Question: And the inhibition at 2.8 µM [23]?
Answer: -10.9%

Question: And the inhibition at 2.8 µM [24]?
Answer: -1.9%

Question: And the inhibition at 2.8 µM [25]?
Answer: -2.5%
